Reference: BindingDB's records for doi:10.1073/pnas.0509591102 (Mcgill University, 2005)

How the values were obtained:
[1] = target: Sigma non-opioid intracellular receptor 1 (Rattus norvegicus, UniProt Q9R0C9)
D(1B) dopamine receptor = D(1B) dopamine receptor (Homo sapiens, UniProt P21918)
[2] = target: 5-hydroxytryptamine receptor 7 (Homo sapiens, UniProt P34969)
[3] = target: Muscarinic acetylcholine receptor M3 (Homo sapiens, UniProt P20309)
[4] = target: Neuronal acetylcholine receptor subunit alpha-4 (Homo sapiens, UniProt P43681)
[5] = target: Muscarinic acetylcholine receptor M2 (Homo sapiens, UniProt P08172)
[6] = target: 5-hydroxytryptamine receptor 1A (Homo sapiens, UniProt P08908)
[7] = target: 5-hydroxytryptamine receptor 1D (Homo sapiens, UniProt P28221)
[8] = target: Muscarinic acetylcholine receptor M5 (Homo sapiens, UniProt P08912)
[9] = target: Alpha-2C adrenergic receptor (Homo sapiens, UniProt P18825)
[10] = target: Neuronal acetylcholine receptor subunit alpha-3 (Homo sapiens, UniProt P32297)
D(2) dopamine receptor = D(2) dopamine receptor (Homo sapiens, UniProt P14416)
[11] = target: Muscarinic acetylcholine receptor M4 (Homo sapiens, UniProt P08173)
Mu-type opioid receptor = Mu-type opioid receptor (Homo sapiens, UniProt P35372)
D(4) dopamine receptor = D(4) dopamine receptor (Homo sapiens, UniProt P21917)
Histamine H1 receptor = Histamine H1 receptor (Homo sapiens, UniProt P35367)
[12] = target: Potassium voltage-gated channel subfamily H member 2 (Homo sapiens, UniProt Q12809)
[13] = target: Alpha-1A adrenergic receptor (Homo sapiens, UniProt P35348)
[14] = target: Beta-2 adrenergic receptor (Rattus norvegicus, UniProt P10608)
[15] = target: 5-hydroxytryptamine receptor 2A (Homo sapiens, UniProt P28223)
[16] = target: Alpha-2B adrenergic receptor (Homo sapiens, UniProt P18089)
[17] = target: AP-2 complex subunit sigma (Rattus norvegicus, UniProt P62744)
[18] = target: Sodium-dependent noradrenaline transporter (Homo sapiens, UniProt P23975)
Histamine H2 receptor = Histamine H2 receptor (Homo sapiens, UniProt P25021)
[19] = target: Muscarinic acetylcholine receptor M1 (Homo sapiens, UniProt P11229)
[20] = target: Beta-1 adrenergic receptor (Rattus norvegicus, UniProt P18090)
[21] = target: Kappa-type opioid receptor (Homo sapiens, UniProt P41145)
[22] = target: 5-hydroxytryptamine receptor 1B (Homo sapiens, UniProt P28222)
[23] = target: ATP-dependent translocase ABCB1 (Homo sapiens, UniProt P08183)
D(3) dopamine receptor = D(3) dopamine receptor (Rattus norvegicus, UniProt P19020)
[24] = target: 5-hydroxytryptamine receptor 1E (Homo sapiens, UniProt P28566)
[25] = target: 5-hydroxytryptamine receptor 2C (Rattus norvegicus, UniProt P08909)
[26] = target: Neuronal acetylcholine receptor subunit alpha-2 (Homo sapiens, UniProt Q15822)
D(1A) dopamine receptor = D(1A) dopamine receptor (Homo sapiens, UniProt P21728)
[27] = target: 5-hydroxytryptamine receptor 3A (Homo sapiens, UniProt P46098)
[28] = target: Alpha-2A adrenergic receptor (Homo sapiens, UniProt P08913)
Cannabinoid receptor 2 = Cannabinoid receptor 2 (Homo sapiens, UniProt P34972)
Cannabinoid receptor 1 = Cannabinoid receptor 1 (Rattus norvegicus, UniProt P20272)
[29] = target: 5-hydroxytryptamine receptor 6 (Homo sapiens, UniProt P50406)
[30] = target: Alpha-1B adrenergic receptor (Homo sapiens, UniProt P35368)

Measured: Ki

Alpha-2C adrenergic receptor, sequence (P18825 whole entry): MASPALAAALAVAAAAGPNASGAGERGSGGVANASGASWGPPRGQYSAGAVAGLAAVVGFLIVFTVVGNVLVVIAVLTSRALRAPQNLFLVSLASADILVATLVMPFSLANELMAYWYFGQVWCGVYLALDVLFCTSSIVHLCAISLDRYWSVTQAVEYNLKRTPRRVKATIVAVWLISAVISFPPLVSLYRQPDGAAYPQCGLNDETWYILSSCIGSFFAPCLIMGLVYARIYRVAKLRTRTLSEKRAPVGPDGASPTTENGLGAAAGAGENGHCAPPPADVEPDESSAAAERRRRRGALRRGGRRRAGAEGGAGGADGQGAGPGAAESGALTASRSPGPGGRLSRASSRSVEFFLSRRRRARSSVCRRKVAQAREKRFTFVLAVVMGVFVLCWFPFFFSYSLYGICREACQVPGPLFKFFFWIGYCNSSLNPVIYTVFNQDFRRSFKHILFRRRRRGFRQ
Alpha-2B adrenergic receptor, sequence (P18089 whole entry): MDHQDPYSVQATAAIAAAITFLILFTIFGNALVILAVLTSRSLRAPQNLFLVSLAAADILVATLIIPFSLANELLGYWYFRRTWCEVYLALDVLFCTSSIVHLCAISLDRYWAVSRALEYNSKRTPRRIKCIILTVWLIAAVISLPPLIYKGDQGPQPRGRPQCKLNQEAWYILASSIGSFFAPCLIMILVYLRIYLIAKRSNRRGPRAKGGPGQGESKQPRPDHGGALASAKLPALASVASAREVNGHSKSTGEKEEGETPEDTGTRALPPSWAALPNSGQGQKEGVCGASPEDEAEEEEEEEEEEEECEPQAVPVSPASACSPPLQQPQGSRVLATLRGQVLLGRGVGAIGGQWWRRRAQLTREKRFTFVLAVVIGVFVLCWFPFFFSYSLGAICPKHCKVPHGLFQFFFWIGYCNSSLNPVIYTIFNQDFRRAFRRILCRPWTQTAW
Beta-1 adrenergic receptor, sequence (P18090 whole entry): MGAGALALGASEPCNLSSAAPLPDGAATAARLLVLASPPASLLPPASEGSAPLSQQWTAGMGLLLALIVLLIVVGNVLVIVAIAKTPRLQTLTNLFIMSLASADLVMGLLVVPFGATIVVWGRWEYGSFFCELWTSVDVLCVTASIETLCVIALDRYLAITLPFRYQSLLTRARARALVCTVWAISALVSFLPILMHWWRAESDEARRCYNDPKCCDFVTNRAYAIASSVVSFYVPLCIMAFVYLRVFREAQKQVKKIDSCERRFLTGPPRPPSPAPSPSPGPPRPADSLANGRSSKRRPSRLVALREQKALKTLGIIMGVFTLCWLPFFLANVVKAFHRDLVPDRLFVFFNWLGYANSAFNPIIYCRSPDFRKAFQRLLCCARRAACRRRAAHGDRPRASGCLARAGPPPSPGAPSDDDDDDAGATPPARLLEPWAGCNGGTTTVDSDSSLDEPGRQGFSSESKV
5-hydroxytryptamine receptor 1B, sequence (P28222 whole entry): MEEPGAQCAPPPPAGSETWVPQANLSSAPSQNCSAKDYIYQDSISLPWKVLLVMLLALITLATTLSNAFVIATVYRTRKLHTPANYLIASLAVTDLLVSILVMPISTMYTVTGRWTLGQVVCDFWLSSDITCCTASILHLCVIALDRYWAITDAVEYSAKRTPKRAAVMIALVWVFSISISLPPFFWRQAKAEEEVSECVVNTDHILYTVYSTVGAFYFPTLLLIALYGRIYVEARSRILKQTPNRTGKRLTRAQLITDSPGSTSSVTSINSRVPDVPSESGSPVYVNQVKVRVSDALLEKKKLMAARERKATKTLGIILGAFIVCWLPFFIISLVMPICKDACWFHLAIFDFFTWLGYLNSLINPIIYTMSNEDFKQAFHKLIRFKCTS
Muscarinic acetylcholine receptor M4, sequence (P08173 whole entry): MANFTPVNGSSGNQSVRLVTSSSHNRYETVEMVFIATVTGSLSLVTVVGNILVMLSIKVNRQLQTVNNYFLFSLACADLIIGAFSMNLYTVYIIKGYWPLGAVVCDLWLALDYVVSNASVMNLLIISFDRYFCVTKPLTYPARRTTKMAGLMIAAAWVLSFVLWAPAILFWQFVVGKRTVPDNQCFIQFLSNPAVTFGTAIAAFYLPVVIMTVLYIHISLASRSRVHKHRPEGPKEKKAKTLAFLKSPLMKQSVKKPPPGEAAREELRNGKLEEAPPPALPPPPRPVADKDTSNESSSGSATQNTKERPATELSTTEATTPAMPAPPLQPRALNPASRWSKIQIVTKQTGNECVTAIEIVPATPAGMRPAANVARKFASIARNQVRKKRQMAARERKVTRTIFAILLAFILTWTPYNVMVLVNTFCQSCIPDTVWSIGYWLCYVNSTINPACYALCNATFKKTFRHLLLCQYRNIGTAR
ATP-dependent translocase ABCB1, sequence (P08183 whole entry): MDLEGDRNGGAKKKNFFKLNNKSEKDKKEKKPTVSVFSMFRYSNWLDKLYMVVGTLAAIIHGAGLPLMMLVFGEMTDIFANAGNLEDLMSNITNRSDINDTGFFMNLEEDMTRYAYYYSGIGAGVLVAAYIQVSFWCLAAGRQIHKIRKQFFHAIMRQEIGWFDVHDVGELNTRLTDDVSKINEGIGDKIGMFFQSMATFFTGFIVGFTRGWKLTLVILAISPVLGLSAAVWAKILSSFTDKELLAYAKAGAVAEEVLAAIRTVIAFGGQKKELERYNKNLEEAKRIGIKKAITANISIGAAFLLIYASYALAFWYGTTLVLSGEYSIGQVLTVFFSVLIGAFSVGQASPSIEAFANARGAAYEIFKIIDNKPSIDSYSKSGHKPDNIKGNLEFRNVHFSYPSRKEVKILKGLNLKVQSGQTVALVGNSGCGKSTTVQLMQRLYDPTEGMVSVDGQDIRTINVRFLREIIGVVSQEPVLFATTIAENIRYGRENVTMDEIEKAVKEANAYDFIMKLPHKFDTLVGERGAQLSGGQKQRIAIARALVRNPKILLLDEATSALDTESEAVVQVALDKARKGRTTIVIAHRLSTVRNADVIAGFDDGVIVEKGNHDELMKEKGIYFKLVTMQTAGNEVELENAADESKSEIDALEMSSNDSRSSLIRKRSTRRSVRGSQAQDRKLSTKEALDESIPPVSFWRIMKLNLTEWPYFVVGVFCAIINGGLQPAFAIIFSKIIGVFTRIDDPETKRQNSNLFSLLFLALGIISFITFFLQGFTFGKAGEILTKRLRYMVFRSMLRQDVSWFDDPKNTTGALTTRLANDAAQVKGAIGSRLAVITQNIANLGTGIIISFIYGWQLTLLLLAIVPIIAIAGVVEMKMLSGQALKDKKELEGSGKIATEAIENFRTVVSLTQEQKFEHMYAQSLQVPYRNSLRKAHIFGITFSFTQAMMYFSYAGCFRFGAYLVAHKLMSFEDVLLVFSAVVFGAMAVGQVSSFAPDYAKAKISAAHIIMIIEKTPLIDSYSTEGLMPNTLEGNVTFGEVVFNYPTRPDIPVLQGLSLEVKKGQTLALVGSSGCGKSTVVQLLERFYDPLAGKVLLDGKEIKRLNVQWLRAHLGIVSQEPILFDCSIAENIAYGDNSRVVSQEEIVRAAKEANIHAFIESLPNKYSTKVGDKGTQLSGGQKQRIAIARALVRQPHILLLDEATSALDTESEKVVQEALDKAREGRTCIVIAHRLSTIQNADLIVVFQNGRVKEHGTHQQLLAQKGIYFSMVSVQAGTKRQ
AP-2 complex subunit sigma, sequence (P62744 whole entry, looked up, one chain of several): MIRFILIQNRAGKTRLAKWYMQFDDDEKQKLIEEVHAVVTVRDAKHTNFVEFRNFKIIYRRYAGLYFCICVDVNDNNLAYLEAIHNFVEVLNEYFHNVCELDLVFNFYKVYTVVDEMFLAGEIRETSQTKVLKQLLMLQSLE
D(1B) dopamine receptor, sequence (P21918 whole entry): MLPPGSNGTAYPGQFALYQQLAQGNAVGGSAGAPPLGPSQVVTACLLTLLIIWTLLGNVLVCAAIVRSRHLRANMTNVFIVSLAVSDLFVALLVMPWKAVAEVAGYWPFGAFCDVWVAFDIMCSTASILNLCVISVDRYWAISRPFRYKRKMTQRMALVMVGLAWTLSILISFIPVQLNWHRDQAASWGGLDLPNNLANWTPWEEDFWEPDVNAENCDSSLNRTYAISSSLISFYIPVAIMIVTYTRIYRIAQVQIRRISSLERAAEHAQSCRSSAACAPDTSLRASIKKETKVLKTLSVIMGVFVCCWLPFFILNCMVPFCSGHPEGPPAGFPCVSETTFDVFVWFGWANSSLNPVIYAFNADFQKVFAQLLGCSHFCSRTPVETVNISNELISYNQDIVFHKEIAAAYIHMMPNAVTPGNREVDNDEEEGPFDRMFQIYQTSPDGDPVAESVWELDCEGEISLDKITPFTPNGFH
Sigma non-opioid intracellular receptor 1, sequence (Q9R0C9 whole entry): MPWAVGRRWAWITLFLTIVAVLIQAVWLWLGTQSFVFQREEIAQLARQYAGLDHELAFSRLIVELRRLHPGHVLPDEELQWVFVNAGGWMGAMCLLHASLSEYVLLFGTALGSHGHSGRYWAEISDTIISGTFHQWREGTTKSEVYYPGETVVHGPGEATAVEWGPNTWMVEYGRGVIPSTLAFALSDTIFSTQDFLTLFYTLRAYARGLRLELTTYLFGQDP
Beta-2 adrenergic receptor, sequence (P10608 whole entry): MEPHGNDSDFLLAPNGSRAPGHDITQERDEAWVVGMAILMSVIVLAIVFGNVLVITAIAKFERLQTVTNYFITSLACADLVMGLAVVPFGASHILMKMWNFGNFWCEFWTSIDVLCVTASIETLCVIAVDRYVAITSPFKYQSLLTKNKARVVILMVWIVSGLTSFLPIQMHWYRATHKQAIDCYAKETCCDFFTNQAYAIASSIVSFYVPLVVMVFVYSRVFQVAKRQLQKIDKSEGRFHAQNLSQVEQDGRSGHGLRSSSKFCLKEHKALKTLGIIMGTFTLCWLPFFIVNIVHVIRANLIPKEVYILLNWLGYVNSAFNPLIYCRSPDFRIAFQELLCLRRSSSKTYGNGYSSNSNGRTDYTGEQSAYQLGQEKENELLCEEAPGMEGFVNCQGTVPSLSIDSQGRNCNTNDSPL

NC(=O)c1cccc(-c2cccc(OC(=O)NC3CCCCC3)c2)c1 [URB 597]
> 10 µM: all assays above
